Data as given in patent publication US11129807B2, “Methods of treating schizophrenia” (Sunovion Pharmaceuticals Inc., priority 2017, dated 2021).

Test system: patients with an acute exacerbation of schizophrenia (PANSS symptom factors)
Assay: Pooled 6-week placebo-controlled lurasidone studies in acute schizophrenia (PANSS Analysis Study): effect sizes on Marder and transformed PANSS factors
Type: in vivo, human
Conditions: FIG. 3B, given as r=
Procedure: Profile of active drug effects on schizophrenia symptom domains. In the left panel of FIG. 3B, shown are lurasidone vs placebo effect sizes (with 95% CI) for change from baseline at week 6 endpoint, based on the Marder PANSS factors. In the right panel of FIG. 3B, the same lurasidone vs placebo effect sizes at endpoint are shown based on the transformed PANSS factors. Drug effects were constructed using a pool of all lurasidone doses (40, 80, 120, or 160 mg/day, total N=993) and excluded active comparators (olanzapine, quetiapine-XR). To examine placebo effects on PANSS factors, placebo treated patients (N=484) were pooled across all studies. Transformed PANSS factors were calculated using the coefficients of the score matrix (see FIG. 4 and Table 4A).
The analysis sample consisted of PANSS data derived from 5 similarly-designed, randomized, double-blind, placebo-controlled, 6-week treatment studies of lurasidone or active comparator for the treatment of patients with an acute exacerbation of schizophrenia. Patients (N=1,710) were included in this analysis if they had received at least one dose of study drug, and had at least one post-baseline PANSS assessment. The analysis pooled all lurasidone doses (40, 80, 120, or 160 mg/d, total N=993), and excluded active comparators (olanzapine, quetiapine-XR). To examine placebo effects on PANSS factors, placebo treated patients (N=484) were pooled across all studies. Herein also referred to as the “PANSS Analysis Study.”
The Uncorrelated PANSS Score Matrix (UPSM) of FIG. 4 and Table 4A was derived using PROC FACTOR procedure of SAS 9.4 with maximum likelihood method (maximum likelihood factor analysis), rotated using the varimax algorithm and compensated for communality greater than 1 using Heywood criteria without a limit on the number of factors produced. A last observation carried forward (LOCF) data imputation method was applied for missing post-baseline PANSS assessments.
The ratings of 30 items in the PANSS data of the PANSS Analysis Study were transformed to transformed PANSS factor scores using a score matrix identified by the maximum likelihood method factor analysis conducted on all change from baseline PANSS data from the 5 short-term clinical trials in the pooled analysis sample. The score matrix, also referred to here as the UPSM, consisted of coefficients multiplying the numerical ratings of each PANSS item differentially for each of the factor scores.
The change-from-baseline PANSS data for all patients and all observations N was a matrix of dimensions (N observations×30 items). To increase precision, the score matrix coefficients were determined using all change-from-baseline observations at Weeks 1-6. The resultant score matrix (30 items×7 factors), or UPSM, was used to transform individual PANSS item change scores (without standardization) to reduce the dimensionality into 7-factor values for each PANSS assessment. FIG. 4 and Table 4A summarize the score matrix (UPSM) weights for individual PANSS items used to generate the transformed PANSS factors.
The weighted score matrix transformation was performed on each of the PANSS item baseline-to-endpoint change scores. This transformation yielded 5 transformed PANSS factors that corresponded to the Marder PANSS factors, with two of the factors (negative symptoms and depression/anxiety) further subdivided into sub-factors (corresponding to the symptom sub-domains of: apathy/avolition and deficit of expression; and depression and anxiety, respectively).
The Validation Study data transformed PANSS factors of Example 1 were used to compare treatment effects of an antipsychotic (lurasidone) on established schizophrenia symptom domains with those estimated using Marder PANSS factors.

O=C1[C@@H]2[C@H]3CC[C@H](C3)[C@@H]2C(=O)N1C[C@@H]1CCCC[C@H]1CN1CCN(c2nsc3ccccc23)CC1 [lurasidone]
effect size, Marder negative symptom factor (change score): 0.35 | effect size, transformed PANSS negative symptoms deficit of expression (change score): 0.04 | effect size, transformed PANSS negative symptoms of apathy/avolition (change score): 0.22 | effect size, Marder PANSS disorganized factor change score: 0.48 | effect size, Marder PANSS factor change score compared with transformed anxiety factor: 0.38 | effect size, Marder PANSS factor change score compared with transformed depression factor: 0.38 | effect size, Marder PANSS hostility factor change score: 0.43 | effect size, Marder PANSS positive factor change score: 0.59 | effect size, transformed PANSS anxiety factor change score: 0.24 | effect size, transformed PANSS depression factor change score: 0.16 | effect size, transformed PANSS disorganized factor change score: 0.23 | effect size, transformed PANSS hostility factor change score: 0.31 | effect size, transformed PANSS positive factor change score: 0.45
